Data on two compounds can be found in patent publication US9133164B2, “MIF inhibitors and their uses” (INNOV88 LLC, priority 2011, dated 2015).

Like-named read-outs stand apart in the source and are kept apart here. Some results are limits rather than exact numbers.

For assay [1], the target named is T1, Native human MIF (Homo sapiens, UniProt P14174).
T1 sequence (P14174 2-115 limits assumed): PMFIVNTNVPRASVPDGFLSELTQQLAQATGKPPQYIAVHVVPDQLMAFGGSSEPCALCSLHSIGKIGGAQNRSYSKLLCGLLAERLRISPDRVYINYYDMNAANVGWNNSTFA
The assay is described as follows: MIF tautomerase activity assay (HPP substrate). Type of assay: biochemical. As to conditions: absorbance at 300 nm. As to the method: (§1) The ability of candidate compounds to inhibit this tautomerase activity is quantitated by wing hydroxyphenyl pyruvic acid (HPP) as a substrate and following the increase in absorbance due to the enzymatic formation of the HPP enol-borate complex at 300 nm in the absence and presence of a test compound. The IC50 value of compounds was determined by plotting the initial velocities determined at 300 nm as a function of a test compound's concentration. Assays were carried out in a 96 or 384 well plate format.
Representative MIF inhibitors were tested in the assay described above and the results tabulated in Table 1 wherein “A” represents ≦1 μM; “B” represents >1 μM and ≦100 μM; “C” represents >100 μM

Assay [2] has as its system LPS-stimulated PBMCs. The assay is described as follows: Cytokine production in LPS-stimulated human PBMCs (ELISA). It counts as cell-based. Particulars: Homo sapiens, PBMC, LPS-stimulated PBMCs, 1 hour preincubation, 20 hours; for inhibition at 2.5 µM: compound at 2.5 uM; for inhibition at 25 µM: compound at 25 uM. An excerpt:
(§2) MIF is secreted by monocytes/macrophages, activated T cells and several effector cells that play an important role in the perpetuation of inflammatory responses of the disease pathogenesis of several autoimmune and inflammatory disorders. MIF promotes the production of proinflammatory mediators such as tumor necrosis factor-α (TNF-α), interleukin (IL)-1β, IL-6 and IL-8 acting in an autocrine and paracrine function in the induction of proinflammatory responses. MIF has also been reported to stimulate the production of IL-17, a T helper 17 (Th17)-specific cytokine critical to the pathogenesis of several autoimmune and inflammatory diseases. […] Mono-Mac-6 Cells: The cellular efficacy of compound candidates is determined using the human monocytic cell line, Mono-Mac-6 cells (MM6 cells) as it has been shown that MM6 cells abundantly express MIF receptors CD74 and CXCR4. MIF-mediated signal transduction through these receptors may be important for the production of inflammatory mediators, including TNF-α, IL-1β, IL-6, IL-8, interferon-γ (IFN-γ) and prostaglandin E2 (PGE2) in these cells. To induce the production of inflammatory mediators, MM6 cells will be plated at a final concentration of 5×10^5 cells/ml in RPMI 1640 medium containing 1% heat-inactivated low-pyrogen fetal bovine serum, 2 mM GlutaMAX-I, 1% non-essential amino acids, 1% sodium pyruvate, 100 units/ml penicillin G and 100 μg/ml streptomycin (Gibco BRL Life Technologies). Cells will be stimulated with 100 ng/ml rhMIF purchased commercially or generated in house with or without inhibitor for 20 h at 37° C. with 5% CO2. The supernatants are stored at […] until they are to be assayed. The levels of inflammatory mediators will be determined using commercial :ELISA kits (eBiosciences). Human Peripheral Blood Mononuclear Cells (PBMCs): The cellular efficacy of compound candidates in inhibiting the production of proinflammatory mediators TNF-α, IL-1β, IL-6 and IL-8 following lipopolysaccharide (LPS) and rhMIF stimulation, and the production of T helper 17 (Th17)-specific cytokines IL-17F and IL-22 following anti-CD3/anti-CD28 stimulation, are determined in human PBMCs. To induce the production of proinflammatory cytokine mediators, cryopreserved human PBMCs (Cellular Technology Ltd.) are plated at a final concentration of 2×10^5 cells/ml in RPMI 1640 medium containing 1% heat-inactivated fetal bovine serum, 1% L-Glutamine and 1% Penicillin/Streptomycin (Lonza). Cells are pre-incubated with or without inhibitor compounds dissolved in DMSO for 1 hour, then stimulated with LPS (Sigma Aldrich) or rhMIF to yield final concentrations of <0.1% DMSO, 100 ng/ml LPS and the compound concentration of interest. The potency of the compound candidates in inhibiting cytokine production is compared, to other small molecule MIF inhibitor standards ISO-1 (EMD Chemicals) N-acetyl-p-benzoquinone imine (NAPQI) and Ibudilast (TCI America). Cells were incubated for 20 hours at 37° C., 5% CO2. For the Th17-specific cytokine production assay, cells are stimulated with 5 ug/mL plate immobilized anti-CD3 (eBioscience) and 2 ug/mL soluble anti-CD28 (eBioscience) in the presence or absence of inhibitor compounds dissolved in DMSO to yield final compound concentrations of interest at <0.1% DMSO. Cells were incubated for 72 hours at 37° C. and 5% CO2. The supernatants are stored at −20° C. until they are to be assayed by ELISA. Cell viability is determined using PrestoBlue™ Cell Viability Reagent (Invitrogen). The cytokine production levels of TNF-α, IL-1β, IL-6, IL-8, IL-17F and IL-22 are determined using commercial ELISA kits (eBiosciences). Human Rheumatoid Arthritis Synovial Fibroblast (RASF) Cell Line: RASF cells are cultured in Dulbecco's modified Eagle's medium with 15% FBS, 1% glutamine, and 1% penicillin/streptamycin (all from Gibco (Invitrogen), Gaithersburg, Md.). […]
A general note: An ELISA detects its analyte on a solid surface through an enzyme-linked reagent.

In assay [3] the test system is anti-CD3/anti-CD28-stimulated PBMCs. The assay is described as follows: Th17-specific cytokine production in anti-CD3/anti-CD28-stimulated human PBMCs (ELISA). Type of assay: cell-based. As to conditions: PBMC, compound at 2.5 uM, 72 hours.
Text: as §2, with “Cells are pre-incubated with or without inhibitor compounds dissolved in DMSO for 1 hour, then stimulated with LPS (Sigma Aldrich) or rhMIF to yield final concentrations of <0.1% DMSO, 100 ng/ml LPS and the compound concentration of interest. The potency of the compound candidates in inhibiting cytokine production is compared, to other small molecule MIF inhibitor standards ISO-1 (EMD Chemicals) N-acetyl-p-benzoquinone imine (NAPQI) and Ibudilast (TCI America). Cells were incubated for 20 hours at 37° C., 5% CO2. For the Th17-specific cytokine production assay, cells are stimulated with 5 ug/mL plate immobilized anti-CD3 (eBioscience) and 2 ug/mL soluble anti-CD28 (eBioscience) in the presence or absence of inhibitor compounds dissolved in DMSO to yield final compound concentrations of interest at <0.1% DMSO. Cells were incubated for 72 hours at 37° C. and 5% CO2. The supernatants are stored at −20° C. until they are to be assayed by ELISA.” left out, “(eBiosciences).” for “(eBiosciences). Human Rheumatoid Arthritis Synovial Fibroblast (RASF) Cell Line: RASF cells are cultured in Dulbecco's modified Eagle's medium with 15% FBS, 1% glutamine, and 1% penicillin/streptamycin (all from Gibco (Invitrogen), Gaithersburg, Md.).”

For assay [4], the target named is T2, MIF (Homo sapiens, UniProt P14174).
T2 sequence (P14174 2-115 limits assumed): T1 sequence (P14174 2-115 limits assumed)
The assay is described as follows: Time dependence in the MIF tautomerase activity assay (preincubation). It counts as biochemical. As to the method: as §1
The MIF tautomerase and cytokine inhibitor Compound 1 was designed as a potential irreversible inhibitor of MIF tautomerase activity. In an effort to investigate this mechanism, time dependent inhibitor analysis was carried out. In this experiment MIF was preincubated [P.I.] with Compound 1 for either 0 minutes, 20 minutes or 60 minutes followed by tautomerase enzyme activity determination.
Compound 1 was preincubated with MIF as indicated (0 min-60 min) and, a tautomerase dose-response analysis was carried out.

Where [5] appears, read: read-out: percent inhibition of IL-1β production.
Setting [6] is: read-out: percent inhibition of IL-6 production.
Setting [7] is: read-out: percent inhibition of IL-8 production.
The mark [8] stands for this setting: read-out: percent inhibition of TNF-α production.
Setting [9] is: read-out: percent inhibition of IL-17F production.
The mark [10] stands for this setting: read-out: percent inhibition of IL-22 production.

For `N#Cc1c(NC2CN(C(=O)CCl)C2)c2ccccc2n(Cc2ccc(F)cc2)c1=O` [Compound 1, 4-[1-(2-Chloro-acetyl)-azetidin-3-ylamino]-1-(4-fluoro-benzyl)-2-oxo-1,2-dihydro-quinoline-3-carbonitrile], the half-maximal inhibitory concentration (IC50) (commonly the concentration needed to halve the response being measured) in assay [1] was 1 to 100 µM; in assay [4] (0 minutes, no preincubation with MIF), 24 µM; in assay [4] (20 minutes preincubation with MIF), 6 µM; in assay [4] (60 minutes preincubation with MIF), 3 µM. Moreover, the inhibition (usually the relative decrease from the control value, in per cent) at 2.5 µM in assay [2] (setting [5]) is more than 70%; in assay [2] (setting [6]) it was 10 to 50%; in assay [2] (setting [7]), 10 to 50%; in assay [2] (setting [8]), 10 to 50%; in assay [3] (setting [9]), more than 70%; in assay [3] (setting [10]), more than 70%. Moreover, the inhibition at 25 µM was more than 70% in assay [2] (setting [5]), more than 70% in assay [2] (setting [6]), 50 to 70% in assay [2] (setting [7]) and more than 70% in assay [2] (setting [8]).
For `C=CC(=O)N1CCN(c2c(C#N)c(=O)n(Cc3ccc(F)cc3)c3ccccc23)CC1` [Compound 2, 4-(4-acryloylpiperazin-1-yl)-1-(4-fluorobenzyl)-2-oxo-1,2-dihydroquinoline-3-carbonitrile], in assay [1], the concentration for half-maximal inhibition (IC50) is 1 to 100 µM. For the same compound, the inhibition at 2.5 µM was more than 70% in assay [2] (setting [5]); less than 10% in assay [2] (setting [6]); less than 10% in assay [2] (setting [7]); 10 to 50% in assay [2] (setting [8]); more than 70% in assay [3] (setting [9]); 10 to 50% in assay [3] (setting [10]). The inhibition at 25 µM in assay [2] (setting [5]) is more than 70%; in assay [2] (setting [6]) it was less than 10%; in assay [2] (setting [7]), less than 10%; in assay [2] (setting [8]), more than 70%.
